In patent publication US9637483B2, “Heterocyclic compound” (TAKEDA PHARMACEUTICAL COMPANY LIMITED, priority 2013, dated 2017):

What was measured:
Assay type in all cases: biochemical
JAK1 = molecular target: T1, JAK1 (Homo sapiens, UniProt P23458); assay: JAK1 enzyme inhibition test (LANCE method); conditions: 1 μM test compound; read-out: JAK1 enzyme inhibitory activity (%, 1 μM)
T1 construct: purchased Invitrogen
Experimental: (§1) JAK1 enzyme inhibitory activity of test compounds was measured by the LANCE method (PerkinElmer). First, a test compound diluted with assay buffer (50 mM HEPES (pH 7.5), 10 mM MgCl2, 1 mM EGTA, 2 mM DTT, 0.01% Tween20, 0.01% BSA) was added to a 384-well plate by 2 μL each. Then, a JAK1 (Invitrogen) solution and a fluorescence-labeled peptide substrate (ULight-JAK1, PerkinElmer) solution diluted with assay buffer to 187.5 ng/mL and 300 nM, respectively, were added by 2 μL each. Then, an enzyme reaction was started by adding 2 μL each of ATP solution prepared with assay buffer to 150 μM. After the reaction at room temperature for 1 hr, Detection Buffer (PerkinElmer) prepared to contain 20 mM EDTA, 4 nM europium-labeled anti-phosphotyrosine antibody (PerkinElmer) was added by 6 μL each. After standing at room temperature for 1 hr, fluorescence intensity (excitation wavelength 340 nm, fluorescence wavelength 665 nm, delay time 100 microseconds) was measured by a plate reader, Envision (PerkinElmer). The inhibitory activity of each compound was calculated as a relative activity value to the fluorescence intensity of a well free of enzyme as 100% inhibition.

JAK2 = molecular target: T2, JAK2 (Homo sapiens, UniProt O60674); assay: JAK2 enzyme inhibition test (LANCE method); conditions: 1 μM test compound; read-out: JAK2 enzyme inhibitory activity (%, 1 μM)
T2 construct: purchased Invitrogen
T2 sequence (O60674 whole entry): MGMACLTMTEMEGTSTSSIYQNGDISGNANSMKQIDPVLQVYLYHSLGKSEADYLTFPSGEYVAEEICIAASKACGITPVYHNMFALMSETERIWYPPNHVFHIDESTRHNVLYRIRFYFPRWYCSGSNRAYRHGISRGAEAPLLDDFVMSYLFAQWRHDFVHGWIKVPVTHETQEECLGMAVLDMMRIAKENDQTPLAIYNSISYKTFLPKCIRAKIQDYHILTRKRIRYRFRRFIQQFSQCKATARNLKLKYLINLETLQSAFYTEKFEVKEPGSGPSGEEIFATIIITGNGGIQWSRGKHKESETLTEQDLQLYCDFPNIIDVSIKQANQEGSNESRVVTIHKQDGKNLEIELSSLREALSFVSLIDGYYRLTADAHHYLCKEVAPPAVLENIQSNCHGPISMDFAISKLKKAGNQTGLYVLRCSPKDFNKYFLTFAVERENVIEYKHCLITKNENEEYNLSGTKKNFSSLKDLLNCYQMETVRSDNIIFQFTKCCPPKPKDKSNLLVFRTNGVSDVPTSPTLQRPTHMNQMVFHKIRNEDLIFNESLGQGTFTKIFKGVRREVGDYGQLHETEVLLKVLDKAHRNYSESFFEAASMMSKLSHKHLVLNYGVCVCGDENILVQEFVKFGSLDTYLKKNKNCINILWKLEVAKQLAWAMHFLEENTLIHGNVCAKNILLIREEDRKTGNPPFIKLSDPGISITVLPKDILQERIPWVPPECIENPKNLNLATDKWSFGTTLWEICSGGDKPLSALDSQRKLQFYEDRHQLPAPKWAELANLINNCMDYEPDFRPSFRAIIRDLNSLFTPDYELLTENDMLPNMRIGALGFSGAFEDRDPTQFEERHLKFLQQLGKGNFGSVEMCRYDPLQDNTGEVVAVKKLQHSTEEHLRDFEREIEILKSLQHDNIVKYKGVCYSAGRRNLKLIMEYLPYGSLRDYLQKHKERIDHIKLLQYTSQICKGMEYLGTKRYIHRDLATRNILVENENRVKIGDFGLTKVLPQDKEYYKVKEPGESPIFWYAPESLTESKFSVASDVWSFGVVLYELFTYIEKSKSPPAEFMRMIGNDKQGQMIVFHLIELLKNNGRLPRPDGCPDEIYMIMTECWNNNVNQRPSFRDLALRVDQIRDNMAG
Experimental: as §1, with “JAK2 enzyme” for “JAK1 enzyme”, “a JAK2” for “a JAK1”, “to 6” for “to 187.5”, “to 45” for “to 150”

TYK2 = molecular target: T3, TYK2 (Homo sapiens, UniProt P29597); assay: TYK2 enzyme inhibition test (LANCE method); conditions: 1 μM test compound; read-out: TYK2 enzyme inhibitory activity (%, 1 μM)
T3 construct: purchased Invitrogen
T3 sequence (P29597 whole entry): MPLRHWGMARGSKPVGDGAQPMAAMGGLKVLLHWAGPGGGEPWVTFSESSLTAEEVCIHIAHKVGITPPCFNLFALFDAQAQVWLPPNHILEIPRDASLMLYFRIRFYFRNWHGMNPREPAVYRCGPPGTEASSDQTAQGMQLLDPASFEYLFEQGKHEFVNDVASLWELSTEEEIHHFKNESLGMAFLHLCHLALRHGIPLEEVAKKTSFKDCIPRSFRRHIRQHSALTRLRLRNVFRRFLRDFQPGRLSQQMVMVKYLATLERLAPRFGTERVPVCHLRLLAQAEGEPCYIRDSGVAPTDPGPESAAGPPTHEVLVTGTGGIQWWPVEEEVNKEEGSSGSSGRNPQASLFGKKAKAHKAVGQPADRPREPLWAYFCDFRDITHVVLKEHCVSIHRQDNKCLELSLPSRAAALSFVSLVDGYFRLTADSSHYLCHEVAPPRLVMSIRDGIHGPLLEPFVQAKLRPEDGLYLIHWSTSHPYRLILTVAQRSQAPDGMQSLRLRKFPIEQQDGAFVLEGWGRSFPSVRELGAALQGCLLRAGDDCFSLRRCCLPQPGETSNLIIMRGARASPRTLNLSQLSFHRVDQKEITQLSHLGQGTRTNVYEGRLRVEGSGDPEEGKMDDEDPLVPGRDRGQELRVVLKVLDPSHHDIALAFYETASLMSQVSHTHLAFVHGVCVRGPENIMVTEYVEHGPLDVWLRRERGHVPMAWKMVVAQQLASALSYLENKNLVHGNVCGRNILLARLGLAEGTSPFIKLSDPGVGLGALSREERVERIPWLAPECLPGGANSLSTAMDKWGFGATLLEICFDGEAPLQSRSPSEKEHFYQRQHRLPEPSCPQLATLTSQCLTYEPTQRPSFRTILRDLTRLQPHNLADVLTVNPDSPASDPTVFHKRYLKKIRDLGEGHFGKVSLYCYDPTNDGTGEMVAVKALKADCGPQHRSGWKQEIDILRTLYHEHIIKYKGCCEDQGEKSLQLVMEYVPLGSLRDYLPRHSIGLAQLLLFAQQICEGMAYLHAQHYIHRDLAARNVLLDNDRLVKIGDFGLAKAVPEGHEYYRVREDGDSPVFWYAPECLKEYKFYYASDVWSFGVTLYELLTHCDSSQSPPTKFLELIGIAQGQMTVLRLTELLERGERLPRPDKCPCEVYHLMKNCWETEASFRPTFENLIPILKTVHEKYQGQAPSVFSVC
Experimental: as §1, with “TYK2 enzyme” for “JAK1 enzyme”, “a TYK2” for “a JAK1”, “to 375” for “to 187.5”, “to 30” for “to 150”

JAK3 = molecular target: T4, JAK3 (Homo sapiens, UniProt P52333); assay: JAK3 enzyme inhibition test (LANCE method); conditions: 1 μM test compound; read-out: JAK3 enzyme inhibitory activity (%, 1 μM)
T4 construct: purchased Invitrogen
T4 sequence (P52333 1-1124): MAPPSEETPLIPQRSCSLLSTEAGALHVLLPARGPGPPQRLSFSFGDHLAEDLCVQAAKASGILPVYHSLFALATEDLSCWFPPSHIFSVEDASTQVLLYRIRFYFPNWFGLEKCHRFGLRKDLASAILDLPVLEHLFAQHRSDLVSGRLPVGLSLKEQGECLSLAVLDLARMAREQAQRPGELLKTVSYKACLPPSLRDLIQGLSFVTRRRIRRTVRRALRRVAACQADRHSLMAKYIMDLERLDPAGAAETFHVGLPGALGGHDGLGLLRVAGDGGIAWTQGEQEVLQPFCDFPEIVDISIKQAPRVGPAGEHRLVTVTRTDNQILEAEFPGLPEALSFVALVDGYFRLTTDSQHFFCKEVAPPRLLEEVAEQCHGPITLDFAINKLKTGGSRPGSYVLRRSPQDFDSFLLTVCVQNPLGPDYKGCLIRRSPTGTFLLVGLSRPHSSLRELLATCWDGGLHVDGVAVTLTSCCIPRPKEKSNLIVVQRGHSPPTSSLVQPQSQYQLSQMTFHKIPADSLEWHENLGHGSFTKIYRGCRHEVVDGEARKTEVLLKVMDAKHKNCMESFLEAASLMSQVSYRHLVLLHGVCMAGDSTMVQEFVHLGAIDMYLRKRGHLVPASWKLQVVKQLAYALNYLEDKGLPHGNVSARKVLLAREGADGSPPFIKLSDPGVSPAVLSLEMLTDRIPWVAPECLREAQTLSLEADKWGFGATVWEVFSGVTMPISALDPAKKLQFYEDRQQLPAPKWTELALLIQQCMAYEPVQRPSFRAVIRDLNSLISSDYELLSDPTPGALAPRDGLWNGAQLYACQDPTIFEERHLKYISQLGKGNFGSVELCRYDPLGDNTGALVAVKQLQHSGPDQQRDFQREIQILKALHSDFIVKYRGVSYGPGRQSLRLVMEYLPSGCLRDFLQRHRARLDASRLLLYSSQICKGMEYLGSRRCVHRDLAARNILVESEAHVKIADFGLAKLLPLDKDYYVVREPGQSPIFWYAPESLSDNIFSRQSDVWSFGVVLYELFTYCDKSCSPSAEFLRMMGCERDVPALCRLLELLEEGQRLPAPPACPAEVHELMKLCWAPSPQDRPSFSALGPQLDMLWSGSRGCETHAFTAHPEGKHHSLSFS
Experimental: as §1, with “JAK3 enzyme” for “JAK1 enzyme”, “a JAK3” for “a JAK1”, “to 12” for “to 187.5”, “to 15” for “to 150”

T1 sequence (P23458 whole entry): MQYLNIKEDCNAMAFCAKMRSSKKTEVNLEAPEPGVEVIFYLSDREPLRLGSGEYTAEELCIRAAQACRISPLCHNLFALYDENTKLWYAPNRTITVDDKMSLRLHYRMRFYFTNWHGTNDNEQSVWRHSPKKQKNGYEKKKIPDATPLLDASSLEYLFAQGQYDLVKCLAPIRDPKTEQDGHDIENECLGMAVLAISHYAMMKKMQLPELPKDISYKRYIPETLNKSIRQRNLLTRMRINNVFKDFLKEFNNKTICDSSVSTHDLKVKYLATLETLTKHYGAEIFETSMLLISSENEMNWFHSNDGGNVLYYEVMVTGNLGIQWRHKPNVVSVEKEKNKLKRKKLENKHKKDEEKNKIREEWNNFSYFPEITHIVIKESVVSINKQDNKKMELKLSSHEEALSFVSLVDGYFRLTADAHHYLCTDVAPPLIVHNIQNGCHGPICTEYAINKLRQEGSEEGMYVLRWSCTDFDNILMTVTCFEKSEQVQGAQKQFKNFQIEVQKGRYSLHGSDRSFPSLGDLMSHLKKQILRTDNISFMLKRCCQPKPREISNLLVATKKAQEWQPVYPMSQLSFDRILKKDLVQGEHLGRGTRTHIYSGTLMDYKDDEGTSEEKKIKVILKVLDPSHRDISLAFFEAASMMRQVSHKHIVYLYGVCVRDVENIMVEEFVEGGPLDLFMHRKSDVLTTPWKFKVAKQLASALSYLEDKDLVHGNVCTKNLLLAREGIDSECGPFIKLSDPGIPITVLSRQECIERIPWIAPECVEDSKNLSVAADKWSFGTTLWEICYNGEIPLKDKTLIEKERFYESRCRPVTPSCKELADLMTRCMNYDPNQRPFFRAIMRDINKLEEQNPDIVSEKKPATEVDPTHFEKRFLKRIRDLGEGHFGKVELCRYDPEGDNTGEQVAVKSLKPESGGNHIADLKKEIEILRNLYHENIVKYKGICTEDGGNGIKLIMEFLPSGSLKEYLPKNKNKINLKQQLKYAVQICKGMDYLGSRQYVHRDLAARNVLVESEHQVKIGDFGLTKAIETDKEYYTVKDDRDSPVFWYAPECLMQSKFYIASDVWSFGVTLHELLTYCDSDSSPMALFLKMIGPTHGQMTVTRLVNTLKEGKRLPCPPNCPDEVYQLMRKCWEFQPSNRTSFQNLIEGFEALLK

SMILES: C[C@@H](C1CC1)n1cc(-c2cc(C(C)(C)O)n(C)n2)c2[nH]nc(N)c2c1=O [Example 7, 3-amino-5-((1S)-1-cyclopropylethyl)-7-(5-(2-hydroxypropan-2-yl)-1-methyl-1H-pyrazol-3-yl)-1,5-dihydro-4H-pyrazolo[4,3-c]pyridin-4-one]
- inhibition at 1 µM (JAK1): 100%
- inhibition at 1 µM (JAK2): 100%
- inhibition at 1 µM (TYK2): 99%
- inhibition at 1 µM (JAK3): 100%

SMILES: C[C@@H](C1CC1)n1cc(-c2cc(N3CCC(C)(O)CC3)n(C)n2)c2[nH]nc(N)c2c1=O [Example 8, 3-amino-5-((1S)-1-cyclopropylethyl)-7-(5-(4-hydroxy-4-methylpiperidin-1-yl)-1-methyl-1H-pyrazol-3-yl)-1,5-dihydro-4H-pyrazolo[4,3-c]pyridin-4-one]
- inhibition at 1 µM (JAK1): 99%
- inhibition at 1 µM (JAK2): 99%
- inhibition at 1 µM (TYK2): 99%
- inhibition at 1 µM (JAK3): 100%

SMILES: CC(C1CC1)n1cc(-c2cc(CN3CCS(=O)(=O)CC3)n(C)n2)c2[nH]nc(N)c2c1=O (stereo not shown) [Example 9, 3-amino-5-(1-cyclopropylethyl)-7-(5-((1,1-dioxidothiomorpholin-4-yl)methyl)-1-methyl-1H-pyrazol-3-yl)-1,5-dihydro-4H-pyrazolo[4,3-c]pyridin-4-one]
- inhibition at 1 µM (JAK1): 98%
- inhibition at 1 µM (JAK2): 99%
- inhibition at 1 µM (TYK2): 99%
- inhibition at 1 µM (JAK3): 100%

SMILES: CC(C)[C@H](C)n1cc(-c2cc(N3CCN(C)CC3)n(C)n2)c2[nH]nc(N)c2c1=O [Example 10, 3-amino-5-((2S)-3-methylbutan-2-yl)-7-(1-methyl-5-(4-methylpiperazin-1-yl)-1H-pyrazol-3-yl)-1,5-dihydro-4H-pyrazolo[4,3-c]pyridin-4-one]
- inhibition at 1 µM (JAK1): 96%
- inhibition at 1 µM (JAK2): 98%
- inhibition at 1 µM (TYK2): 99%
- inhibition at 1 µM (JAK3): 99%

SMILES: CC(=O)N1CCN(c2cc(-c3cn([C@@H](C)C(C)C)c(=O)c4c(N)n[nH]c34)nn2C)CC1 [Example 11, 7-(5-(4-acetylpiperazin-1-yl)-1-methyl-1H-pyrazol-3-yl)-3-amino-5-((2S)-3-methylbutan-2-yl)-1,5-dihydro-4H-pyrazolo[4,3-c]pyridin-4-one]
- inhibition at 1 µM (JAK1): 98%
- inhibition at 1 µM (JAK2): 99%
- inhibition at 1 µM (TYK2): 100%
- inhibition at 1 µM (JAK3): 99%

SMILES: CC(C)[C@H](C)n1cc(-c2cc(N3CCS(=O)(=O)CC3)n(C)n2)c2[nH]nc(N)c2c1=O [Example 12, 3-amino-7-(5-(1,1-dioxidothiomorpholin-4-yl)-1-methyl-1H-pyrazol-3-yl)-5-((2S)-3-methylbutan-2-yl)-1,5-dihydro-4H-pyrazolo[4,3-c]pyridin-4-one]
- inhibition at 1 µM (JAK1): 93%
- inhibition at 1 µM (JAK2): 99%
- inhibition at 1 µM (TYK2): 100%
- inhibition at 1 µM (JAK3): 99%

SMILES: CC(C)[C@H](C)n1cc(-c2cc(N3CCCOCC3)n(C)n2)c2[nH]nc(N)c2c1=O [Example 13, 3-amino-5-((2S)-3-methylbutan-2-yl)-7-(1-methyl-5-(1,4-oxazepan-4-yl)-1H-pyrazol-3-yl)-1,5-dihydro-4H-pyrazolo[4,3-c]pyridin-4-one]
- inhibition at 1 µM (JAK1): 97%
- inhibition at 1 µM (JAK2): 99%
- inhibition at 1 µM (TYK2): 100%
- inhibition at 1 µM (JAK3): 99%

SMILES: COC1CCN(c2cc(-c3cn([C@@H](C)C(C)C)c(=O)c4c(N)n[nH]c34)nn2C)CC1 [Example 14, 3-amino-7-(5-(4-methoxypiperidin-1-yl)-1-methyl-1H-pyrazol-3-yl)-5-((2S)-3-methylbutan-2-yl)-1,5-dihydro-4H-pyrazolo[4,3-c]pyridin-4-one]
- inhibition at 1 µM (JAK1): 97%
- inhibition at 1 µM (JAK2): 99%
- inhibition at 1 µM (TYK2): 99%
- inhibition at 1 µM (JAK3): 99%

SMILES: CC(C)[C@H](C)n1cc(-c2cc(N3CCC(C(C)(C)O)CC3)n(C)n2)c2[nH]nc(N)c2c1=O [Example 15, 3-amino-7-(5-(4-(2-hydroxypropan-2-yl)piperidin-1-yl)-1-methyl-1H-pyrazol-3-yl)-5-((2S)-3-methylbutan-2-yl)-1,5-dihydro-4H-pyrazolo[4,3-c]pyridin-4-one]
- inhibition at 1 µM (JAK1): 97%
- inhibition at 1 µM (JAK2): 99%
- inhibition at 1 µM (TYK2): 100%
- inhibition at 1 µM (JAK3): 100%

SMILES: CC(C)[C@H](C)n1cc(-c2cc(N3CCC(F)(F)CC3)n(C)n2)c2[nH]nc(N)c2c1=O [Example 16, 3-amino-7-(5-(4,4-difluoropiperidin-1-yl)-1-methyl-1H-pyrazol-3-yl)-5-((2S)-3-methylbutan-2-yl)-1,5-dihydro-4H-pyrazolo[4,3-c]pyridin-4-one]
- inhibition at 1 µM (JAK1): 97%
- inhibition at 1 µM (JAK2): 99%
- inhibition at 1 µM (TYK2): 100%
- inhibition at 1 µM (JAK3): 100%
